Laboratory results reported in patent publication US20070266957A1 (priority 2004, published 2007).
Read-outs that look alike come from different tables or passages of the source.

Tested on: influenza virus (H3N2 type human vaccine New Caledonia strain)
Format: cell-based

Substance: hinokitiol copper complex
- anti-influenza virus activity: ineffective
- FFU (concentration 0.8 μg/ml): 280 FFU
- FFU (concentration 4 μg/ml): Exfoliation
- FFU (concentration 20 μg/ml): Exfoliation
- FFU (concentration 100 μg/ml): Exfoliation
